# Article PMC6684654 (Nature Communications, 2019)
# Where “and” joins values, the source holds several entries; their conditions need not be identical. Equal values may be shown once. Bridge positions count the residues as written; N and C are the ends. Ends that are not written are not given here.
# B1: Thanatin (peptide)
# peptide: GSKKPVPIIYCNRRTGKCQRM
# modifications: disulfide 11-18
# notes: thanatin, inducible 21-residue insect peptide; source: synthetic peptide (solid-phase, Fmoc), purified by reverse-phase HPLC to over 98%
# What was measured:
# [1] = system: seven NDM-1-producing strains; test: Checkerboard assay / FIC, summary; assay type: cell-based, E. coli; K. pneumoniae; details: in combination with thanatin
# Experimental: (§1) Synergy in vitro was assessed by checkerboard assays. […] Following incubation, the synergistic/additive effect was determined by calculating the FIC indices (FICI) according to the formula: FICI = (MIC of A in combination/MIC of A) + (MIC of B in combination/MIC of B). The synergy or additive was defined according to standard criteria (FICI ≤ 0.5 was defined as synergistic; 0.5 < FICI ≤ 1 was defined as additive; 1 < FICI ≤ 4 was defined as indifference; FICI > 4 was defined as antagonism)[39].
# [2] = system: NDM-1 E. coli XJ141015; test: MIC, broth microdilution; assay type: cell-based; details: Escherichia coli; MHB, 5 × 10^5 CFU/mL, 16 h, 37 °C; read-out: MIC
# Source text: (§2) MIC values were identified through microdilution in sterilized 96-well polypropylene microtiter plates according to the broth microdilution guideline of the Clinical and Laboratory Standards Institute[30]. The test medium was Mueller–Hinton broth (MHB), and the strain concentrations were adjusted to 5 × 10^5 CFU/mL.
# [3] = system: NDM-1 K. pneumoniae XJ155018; test: MIC, broth microdilution; assay type: cell-based; details: Klebsiella pneumoniae, 16 h
# Source text: as §2
# [4] = system: NDM-1 K. pneumoniae XJ155017; test: MIC, broth microdilution; assay type: cell-based; details: Klebsiella pneumoniae, 16 h
# Source text: as §2
# [5] = system: NDM-1 K. pneumoniae XJ155020; test: MIC, broth microdilution; assay type: cell-based; details: Klebsiella pneumoniae, 16 h
# Source text: as §2
# [6] = system: E. coli ATCC25922; test: MIC, broth microdilution; assay type: cell-based; details: Escherichia coli, ATCC25922, 16 h
# Source text: as §2
# [7] = system: E. coli ATCC35218; test: MIC, broth microdilution; assay type: cell-based; details: Escherichia coli, ATCC35218, 16 h
# Source text: as §2
# [8] = system: NDM-1 E. coli XJ141047; test: MIC, broth microdilution; assay type: cell-based; details: Escherichia coli; MHB, 5 × 10^5 CFU/mL, 16 h, 37 °C; read-out: MIC
# Source text: as §2
# [9] = system: K. pneumoniae ATCC13883; test: MIC, broth microdilution; assay type: cell-based; details: Klebsiella pneumoniae, ATCC13883, 16 h
# Source text: as §2
# [10] = system: NDM-1 E. coli XJ141026; test: MIC, broth microdilution; assay type: cell-based; details: Escherichia coli; MHB, 5 × 10^5 CFU/mL, 16 h, 37 °C; read-out: MIC
# Source text: as §2
# [11] = system: NDM-1 K. pneumoniae XJ155019; test: MIC, broth microdilution; assay type: cell-based; details: Klebsiella pneumoniae, 16 h
# Source text: as §2
# [12] = system: NDM-1 E. coli XJ141015; test: Antibiotic susceptibility (MIC), automated identification system; assay type: cell-based; details: Supplementary Table 1
# Source text: (§3) Clinical isolate strains were identified and screened by the Phoenix 100 automated bacterial identification system to rapidly detect antimicrobial resistance. Total DNA was extracted by the TIANamp Bacteria DNA Kit according to the manufacturer’s protocol. The presence of blaNDM-1 was confirmed using a diagnostic kit for NDM-1 (Puruikang Bio Inc., Shenzhen, China) based on fluorescent quantitative polymerase chain reaction assay. According to the instruction, Ct values of less than 37 were considered positive.
# [13] = system: NDM-1 K. pneumoniae XJ155018; test: as above; assay type: cell-based; details: Supplementary Table 2
# Source text: as §3
# [14] = system: NDM-1 K. pneumoniae XJ155017; test: as above; assay type: cell-based; details: Supplementary Table 2
# Source text: as §3
# [15] = system: NDM-1 K. pneumoniae XJ155020; test: as above; assay type: cell-based; details: Supplementary Table 2
# Source text: as §3
# [16] = system: E. coli ATCC25922; test: as above; assay type: cell-based; details: Supplementary Table 1
# Source text: as §3
# [17] = system: NDM-1 E. coli XJ141047; test: as above; assay type: cell-based; details: Supplementary Table 1
# Source text: as §3
# [18] = system: K. pneumoniae ATCC13883; test: as above; assay type: cell-based; details: Supplementary Table 2
# Source text: as §3
# [19] = system: NDM-1 E. coli XJ141026; test: as above; assay type: cell-based; details: Supplementary Table 1
# Source text: as §3
# [20] = system: NDM-1 K. pneumoniae XJ155019; test: as above; assay type: cell-based; details: Supplementary Table 2
# Source text: as §3
# [21] = system: E. coli XJ141026-infected BALB/c mice; test: Thanatin + meropenem in sepsis model: survival; assay type: in vivo, mouse (E. coli infection); details: alone or combined, single i.p. dose, n = 14
# Experimental: BALB/c mice were infected intraperitoneally with 8 × 10^7 CFU of E. coli XJ141026 in 0.1 mL of MHB. […] The model group was intraperitoneally injected with an equivalent volume of PBS. […] In addition, the survival rates were detected as described above.
# [22] = system: NDM-1 E. coli XJ141026; test: Checkerboard assay / FIC; assay type: cell-based; details: Escherichia coli
# Experimental: as §1
# [23] = system: NDM-1-producing E. coli XJ141026; test: Bactericidal activity of combination treatment; assay type: cell-based; details: Mem 18 μM, Tha 0.4 μM, alone or combined, 16 h, listed as Mem
# Experimental: The kill curves were determined as mentioned above to investigate the bactericidal activity of the combination treatment. […] CFUs were counted.
# [24] = system: NDM-1 K. pneumoniae XJ155018; test: Kirby Bauer disc diffusion; assay type: cell-based
# Source text: (§4) Supplementary Ta b l e 2. Identification and anti biotic susceptibility of NDM-1-producing K. pneumonia strains.
# (§5) Antibiotics NDM-1 NDM-1 NDM-1 NDM-1 […]
# (§6) Cefoperazone/ sul bact am KB 32 (S) 7 (R) 7 (R) 7 (R) 7 (R)
# (§7) Nitrofurantoi n KB 21 (S) 7 (R) 9 (R) 10 (R) 9 (R) […]
# (§8) R, resistant; S, sensitive; M IC , minimum inhibitory concentration; KB, Kirb y Baue r disc diffusion method .
# (§9) The unit of M IC is “μg/mL”. The unit of KB is “mm”.
# [25] = system: NDM-1 K. pneumoniae XJ155017; test: Kirby Bauer disc diffusion; assay type: cell-based
# Source text: as §4, §5, §6, §7, §8, §9
# [26] = system: NDM-1 K. pneumoniae XJ155020; test: Kirby Bauer disc diffusion; assay type: cell-based
# Source text: as §4, §5, §6, §7, §8, §9
# [27] = system: K. pneumoniae ATCC13883; test: Kirby Bauer disc diffusion; assay type: cell-based
# Source text: as §4, §5, §6, §7, §8, §9
# [28] = system: NDM-1 K. pneumoniae XJ155019; test: Kirby Bauer disc diffusion; assay type: cell-based
# Source text: as §4, §5, §6, §7, §8, §9
# [29] = system: NDM-1 E. coli XJ141015; test: Kirby Bauer disc diffusion; assay type: cell-based
# Source text: (§10) Supplementary Table 1. Identification and antibiotic susceptibility of NDM-1-producing E. coli strains. […]
# (§11) Cefoperazone/ sul bact am KB — — 7 (R) 7 (R) 7 (R)
# (§12) Nitrofurantoi n KB — — 14 (R) 17 (R) 19 (S) […]
# (§13) R, resistant; S, sensitive; M IC , minimum inhibitory concentration; KB, Kirb y Bauer disc diffusion method.
# (§14) The unit of M IC is “ μ g/ mL”. The unit of KB is “ mm” .
# [30] = system: NDM-1 E. coli XJ141047; test: Kirby Bauer disc diffusion; assay type: cell-based
# Source text: as §10, §11, §12, §13, §14
# [31] = system: NDM-1 E. coli XJ141026; test: Kirby Bauer disc diffusion; assay type: cell-based
# Source text: as §10, §11, §12, §13, §14
# [32] = molecular target: T1, New Delhi metallo-β-lactamase-1 (NDM-1), without signal peptide, amino-terminal histidine tag (RED-tris-NTA second-generation dye on the His-tag (in the MST assay)); test: cell-based or functional assay
# T1 chain: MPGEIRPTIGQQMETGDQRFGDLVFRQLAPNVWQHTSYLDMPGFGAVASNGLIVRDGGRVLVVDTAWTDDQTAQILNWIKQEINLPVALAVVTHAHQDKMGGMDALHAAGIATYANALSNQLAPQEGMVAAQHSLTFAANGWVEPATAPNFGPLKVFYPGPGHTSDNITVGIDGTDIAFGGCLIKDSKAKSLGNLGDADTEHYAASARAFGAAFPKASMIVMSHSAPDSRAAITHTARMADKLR
# [33] = molecular target: T1, New Delhi metallo-β-lactamase-1 …; test: enzyme inhibition kinetics; 1 nM purified NDM-1 with 10 μM ZnSO4, pre-incubated 20 min at 30 °C with thanatin; imipenem 100-1600 μM; initial rates fitted to the competitive inhibition model; 50 mM HEPES, 0.05% Tween-20; details: both partners purified
# [34] = molecular target: T1, New Delhi metallo-β-lactamase-1 …; test: MST; RED-tris-NTA-labelled apo-NDM-1 (100 nM, mixed 1:1) with serially diluted thanatin; 50 mM HEPES pH 6.8, 0.05% Tween-20; 30 min at room temperature; Monolith NT.115 Pico, medium MST power; details: both partners purified
# [35] = Klebsiella pneumoniae, read-out: KB disc diffusion
molecule,measurement,setting,value
C[C@@H](O)[C@H]1C(=O)N2C(C(=O)O)=C(S[C@@H]3CN[C@H](C(=O)N(C)C)C3)[C@H](C)[C@H]12 [Meropenem],"FIC indices, all seven strains",[1],≤ 1
same,effect of combination,[1],synergistic or additive
same,MIC,[2],64 µg/mL
same,MIC,[3],128 µg/mL
same,MIC,[4],> 256 µg/mL
same,MIC,[5],128 µg/mL
same,MIC,[6],< 0.125 µg/mL
same,MIC,[7],< 0.125 µg/mL
same,MIC,[8],64 µg/mL
same,MIC,[9],< 0.125 µg/mL
same,MIC,[10],64 µg/mL
same,MIC,[11],128 µg/mL
same,MIC,[12]; Escherichia coli,> 8 µg/mL
same,susceptibility class (MIC),[12],R
same,MIC,[13]; Klebsiella pneumoniae,> 8 µg/mL
same,susceptibility class (MIC),[13],R
same,MIC,[14]; Klebsiella pneumoniae,> 8 µg/mL
same,susceptibility class (MIC),[14],R
same,MIC,[15]; Klebsiella pneumoniae,> 8 µg/mL
same,susceptibility class (MIC),[15],R
same,MIC,"[16]; Escherichia coli, ATCC25922",≤ 1 µg/mL
same,susceptibility class (MIC),[16],S
same,MIC,[17]; Escherichia coli,> 8 µg/mL
same,susceptibility class (MIC),[17],R
same,MIC,"[18]; Klebsiella pneumoniae, ATCC13883",≤ 1 µg/mL
same,susceptibility class (MIC),[18],S
same,MIC,[19]; Escherichia coli,> 8 µg/mL
same,susceptibility class (MIC),[19],R
same,MIC,[20]; Klebsiella pneumoniae,> 8 µg/mL
same,susceptibility class (MIC),[20],R
same,Survival (number of mice),"[21]; Tha 0.1 mg/kg, Mem 10 mg/kg, Day 7",4
same,survival rate,"[21]; thanatin 0.1 mg/kg, meropenem 10 mg/kg",30%
same,MIC,[22]; in the presence of sub-MIC thanatin,18 µM
same,MIC,[22]; meropenem alone,144 µM
same,bacterial count,[23]; replicate 1,11.61 Log10(CFU/mL) and 4.04E+11 CFU/mL
same,bacterial count,[23]; replicate 2,12.11 Log10(CFU/mL) and 1.30E+12 CFU/mL
same,bacterial count,[23]; replicate 3,11.93 Log10(CFU/mL) and 8.52E+11 CFU/mL
same,bacterial count,[23]; replicate 4,10.88 Log10(CFU/mL) and 7.65E+10 CFU/mL
CO/N=C(\C(=O)N[C@@H]1C(=O)N2C(C(=O)O)=C(COC(N)=O)CS[C@H]12)c1ccco1 [Cefuroxime],susceptibility class (KB),[24],R
same,inhibition zone diameter,[24]; [35],7 mM
same,susceptibility class (KB),[25],R
same,inhibition zone diameter (Kirby-Bauer disc diffusion),[25]; [35],7 mM
same,susceptibility class (KB),[26],R
same,disc diffusion inhibition zone diameter,[26]; [35],7 mM
same,susceptibility class (KB),[27],S
same,inhibition zone diameter,"[27]; Klebsiella pneumoniae, ATCC13883, read-out: KB disc diffusion",23 mM
same,susceptibility class (KB),[28],R
same,susceptibility class (KB),[29],R
same,susceptibility class (KB),[30],R
same,inhibition zone diameter,"[30]; Escherichia coli, read-out: KB disc diffusion",7 mM
same,susceptibility class (KB),[31],R
B1,"inhibition of imipenem hydrolysis by purified NDM-1 (1 nM enzyme, 100 μM imipenem, 12 concentrations of thanatin), IC50",[32],3210 nM
same,Ki,[33],2840 nM
same,Kd,[34],~710 nM
